Experimental data reported in patent US11174242B2, “Heteroaryl compounds and their use” (Minoryx Therapeutics S.L., priority 2016, dated 2021).
Positions count from the first letter of the chain named.

Legend:
[1] = target: T1, β-glucocerebrosidase, p.L444P mutation (GM08760A fibroblasts) (Homo sapiens, UniProt P04062, L483P); test: Enhancement of β-glucocerebrosidase activity measured in Gaucher disease fibroblasts (L444P); assay type: cell-based; conditions: increase in enzyme activity vs non-treated cells, GBA fibroblasts bearing L444P
T1 construct: host or cells: human Gaucher patient fibroblasts GM08760A, homozygous L444P
T1 sequence (P04062 40-536 L483P): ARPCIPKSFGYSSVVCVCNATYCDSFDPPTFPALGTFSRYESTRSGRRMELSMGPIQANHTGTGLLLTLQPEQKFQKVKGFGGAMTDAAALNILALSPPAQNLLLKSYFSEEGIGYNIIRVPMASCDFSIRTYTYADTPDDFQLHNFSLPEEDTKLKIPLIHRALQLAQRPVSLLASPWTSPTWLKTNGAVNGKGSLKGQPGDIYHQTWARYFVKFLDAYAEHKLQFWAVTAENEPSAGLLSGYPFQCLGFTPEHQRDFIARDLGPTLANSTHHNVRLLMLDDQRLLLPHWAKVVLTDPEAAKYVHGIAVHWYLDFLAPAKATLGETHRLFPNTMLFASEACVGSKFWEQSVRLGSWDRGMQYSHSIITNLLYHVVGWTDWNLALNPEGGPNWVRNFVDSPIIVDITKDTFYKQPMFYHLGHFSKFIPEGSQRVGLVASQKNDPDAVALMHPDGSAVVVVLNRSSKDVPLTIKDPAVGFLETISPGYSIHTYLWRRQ
Description: Enhancement of β-Glucocerebrosidase Activity Measured in Gaucher Disease Fibroblasts Materials
Human fibroblasts from a patient with Gaucher disease homozygous for p.L444P mutation (GM08760A) were purchased from Coriell Institute for Medical Research (Camden, N.J., USA).
(§1) Fibroblasts were seeded at 5×10^3 cells per well in 96-well cell culture plates (Corning, N.Y., USA) in Dulbecco's Modified Eagle's Media (DMEM) supplemented with 10% of fetal bovine serum (FBS), 1% penicillin/streptomycin (P/S) (Thermo Fisher Scientific, Waltham, Mass., USA) and grown at 37° C., 5% CO2 overnight for cell attachment. Subsequently, cells were incubated in the absence or presence of the compounds at the desired concentration for 4 days. After incubation, cells were washed twice with phosphate-buffered saline (PBS) and enzyme activity assay was performed.
(§2) β-glucocerebrosidase activity in intact cultured cells was measured by using 4-methylumbelliferyl-β-D-glucopyranoside substrate (Apollo Scientific, UK). Briefly, cells were incubated with 4-MU-β-D-glucopyranoside in 0.1 M acetate buffer pH=4 at 37° C. for 1 hour. […] The liberated 4-MU was measured on a GloMax Discover plate reader (Promega, Madison, Wis., USA) with and excitation at 340 nm and emission at 460 nm. Enzyme activities were expressed in treated cells as X-fold increase in comparison with non-treated cells (X=1 represents no enhancement).
The capacity of the compounds of the disclosure to produce an increase in enzyme activity in GBA fibroblasts bearing L444P at concentrations between 6 and 50 μM is denoted as follows:
(§3) The following compounds listed in Table 2 were purchased (from Enamine, Princeton, Asinex, Vistas-M, and OSSK_541352) and tested in the assay as described above.

[2] = target: T2, β-glucocerebrosidase Wild Type (WT) (Homo sapiens, UniProt P04062); test: β-glucocerebrosidase activity enhancement, Wild Type (WT); assay type: cell-based; conditions: increase in enzyme activity vs non-treated cells; for Activity WT: commercially available compounds
T2 construct: endogenous in cells
T2 sequence (P04062 40-536): T1 sequence (P04062 40-536 L483P) with P444L
Description: as §1, §2, §3

[3] = concentrations between 6 and 50 μM, 4 days incubation
[4] = commercially available compounds, 6-50 μM, 4 days

SMILES: COc1ccc(Nc2nc(N)nc(CN(C)Cc3ccccc3)n2)cc1 [Example 6, 6-((Benzyl(methyl)amino)methyl)-N^2-(4-methoxyphenyl)-1,35-triazine-2,4-diamine]
- Activity L444P [1, 3]: B (Increase in comparison with non-treated of >1.7-2.0 fold is shown as B)
- Activity Wild Type (WT) [2]: B (Increase in comparison with non-treated of >1.7-2.0 fold is shown as B)

SMILES: Cc1cccc(Nc2cc(N)nc(CN(C)Cc3ccccc3)n2)c1 [Example 64, 2-((Benzyl(methyl)amino)methyl)-N^4-m-tolylpyrimidine-4,6-diamine]
- Activity L444P [1, 3]: B (Increase in comparison with non-treated of >1.7-2.0 fold is shown as B)
- Activity Wild Type (WT) [2]: B (Increase in comparison with non-treated of >1.7-2.0 fold is shown as B)

SMILES: Cc1ccc(Nc2nc(N)nc(CN(C)c3ccccc3)n2)cc1 [Example 1, 6-((Methyl(phenyl)amino)methyl)-N^2-(p-tolyl)-1,3,5-triazine-2,4-diamine]
- Activity L444P [1, 3]: C (Increase in comparison with non-treated of 1.2-1.7 fold is shown as C)
- Activity Wild Type (WT) [2]: B (Increase in comparison with non-treated of >1.7-2.0 fold is shown as B)

SMILES: COc1ccc(CN(C)Cc2cc(Nc3cccc(C)c3)nc(N)n2)cc1 [Example 47, 6-(((4-Methoxybenzyl)(methyl)amino)methyl)-N^4-m-tolylpyrimidine-2,4-diamine]
- Activity L444P [1, 3]: C (Increase in comparison with non-treated of 1.2-1.7 fold is shown as C)
- Activity Wild Type (WT) [2]: C (Increase in comparison with non-treated of 1.2-1.7 fold is shown as C)

SMILES: Cc1ccc(Nc2cc(CN(C)Cc3ccccc3)nc(N)n2)cc1 [Example 52, 6-((Benzyl(methyl)amino)methyl)-N^4-p-tolylpyrimidine-2,4-diamine]
- Activity L444P [1, 3]: C (Increase in comparison with non-treated of 1.2-1.7 fold is shown as C)
- Activity Wild Type (WT) [2]: C (Increase in comparison with non-treated of 1.2-1.7 fold is shown as C)

SMILES: CN(Cc1ccccc1)Cc1nc(N)nc(Nc2cccnc2)n1 [Example 26, 6-((Benzyl(methyl)amino)methyl)-N^2-(pyridin-3-yl)-1,3,5-triazine-2,4-diamine]
- Activity L444P [1, 3]: C (Increase in comparison with non-treated of 1.2-1.7 fold is shown as C)
- Activity Wild Type (WT) [2]: B (Increase in comparison with non-treated of >1.7-2.0 fold is shown as B)

SMILES: Cc1ccc(Nc2nc(N)nc(CN3CCN(Cc4ccc5c(c4)OCO5)CC3)n2)cc1 [6-((4-(benzo[d][1,3]dioxo1-5-ylmethyl)piperazin-1-yl)methyl)-N2-(p-tolyl)-1,3,5-triazine-2,4-diamine]
- Activity L444P [1, 4]: C (Increase in comparison with non-treated of 1.2-1.7 fold is shown as C)
- Activity WT [2]: B (Increase in comparison with non-treated of >1.7-2.0 fold is shown as B)

SMILES: CCc1ccc(CN(C)Cc2nc(N)nc(Nc3ccc(C)cc3)n2)cc1 [6-(((4-ethylbenzyl)(methyl)amino)methyl)-N2-(p-tolyl)-1,3,5-triazine-2,4-diamine]
- Activity L444P [1, 4]: C (Increase in comparison with non-treated of 1.2-1.7 fold is shown as C)
- Activity WT [2]: B (Increase in comparison with non-treated of >1.7-2.0 fold is shown as B)

SMILES: Nc1nc(CN2CCN(c3cccc(Cl)c3)CC2)nc(Nc2ccc3c(c2)OCCO3)n1 [6-((4-(3-chlorophenyl)piperazin-1-yl)methyl)-N2-(2,3-dihydrobenzo[b][1,4]dioxin-6-yl)-1,3,5-triazine-2,4-diamine]
- Activity L444P [1, 4]: B (Increase in comparison with non-treated of >1.7-2.0 fold is shown as B)
- Activity WT [2]: C (Increase in comparison with non-treated of 1.2-1.7 fold is shown as C)

SMILES: CN(Cc1ccccc1)Cc1nc(N)nc(Nc2cccc(C#N)c2)n1 [Example 12, 3-(4-Amino-6-((benzyl(methyl)amino)methyl)-1,3,5-triazin-2-ylamino)benzonitrile]
- Activity L444P [1, 3]: C (Increase in comparison with non-treated of 1.2-1.7 fold is shown as C)
- Activity Wild Type (WT) [2]: B (Increase in comparison with non-treated of >1.7-2.0 fold is shown as B)

SMILES: COc1ccc(Nc2nc(N)cc(CN(C)Cc3ccccc3)n2)cc1 [Example 70]
- Activity L444P [1, 3]: A (Increase in comparison with non-treated of >2.0 fold is shown as A)
- Activity Wild Type (WT) [2]: B (Increase in comparison with non-treated of >1.7-2.0 fold is shown as B)

SMILES: Cc1cccc(Nc2nc(N)cc(CN(C)Cc3ccccc3)n2)c1 [Example 68, 6-((Benzyl(methyl)amino)methyl)-N^2-m-tolylpyrimidine-2,4-diamine]
- Activity L444P [1, 3]: B (Increase in comparison with non-treated of >1.7-2.0 fold is shown as B)
- Activity Wild Type (WT) [2]: A (Increase in comparison with non-treated of >2.0 fold is shown as A)

SMILES: Cc1ccccc1Nc1cc(CN(C)Cc2ccccc2)nc(N)n1 [Example 28, 6-((Benzyl(methyl)amino)methyl)-N^4-o-tolylpyrimidine-2,4-diamine]
- Activity L444P [1, 3]: B (Increase in comparison with non-treated of >1.7-2.0 fold is shown as B)
- Activity Wild Type (WT) [2]: B (Increase in comparison with non-treated of >1.7-2.0 fold is shown as B)

SMILES: COc1cccc(Nc2cc(N)nc(CN(C)Cc3ccccc3)n2)c1 [Example 65, 2-((Benzyl(methyl)amino)methyl)-N^4-(3-methoxyphenyl)pyrimidine-4,6-diamine]
- Activity L444P [1, 3]: B (Increase in comparison with non-treated of >1.7-2.0 fold is shown as B)
- Activity Wild Type (WT) [2]: A (Increase in comparison with non-treated of >2.0 fold is shown as A)

SMILES: COc1ccc(OC)c(Nc2cc(CN(C)Cc3ccccc3)nc(N)n2)c1 [Example 41, 6-((Benzyl(methyl)amino)methyl)-N^4-(2,5-dimethoxyphenyl)pyrimidine-2,4-diamine]
- Activity L444P [1, 3]: B (Increase in comparison with non-treated of >1.7-2.0 fold is shown as B)
- Activity Wild Type (WT) [2]: C (Increase in comparison with non-treated of 1.2-1.7 fold is shown as C)

SMILES: COc1cccc(Nc2cc(CN(C)Cc3ccccc3)nc(N)n2)c1OC [Example 42, 6-((Benzyl(methyl)amino)methyl)-N^4-(2,3-dimethoxyphenyl)pyrimidine-2,4-diamine]
- Activity L444P [1, 3]: C (Increase in comparison with non-treated of 1.2-1.7 fold is shown as C)
- Activity Wild Type (WT) [2]: B (Increase in comparison with non-treated of >1.7-2.0 fold is shown as B)

SMILES: CCN(Cc1ccccc1)Cc1cc(Nc2cccc(OC)c2)nc(N)n1 [Example 48, 6-((Benzyl(ethyl)amino)methyl)-N^4-(3-methoxyphenyl)pyrimidine-2,4-diamine]
- Activity L444P [1, 3]: C (Increase in comparison with non-treated of 1.2-1.7 fold is shown as C)
- Activity Wild Type (WT) [2]: B (Increase in comparison with non-treated of >1.7-2.0 fold is shown as B)

SMILES: COc1cccc(Nc2cc(CN(C)Cc3cccc(C#N)c3)nc(N)n2)c1 [Example 37, 3-((((2-Amino-6-(3-methoxyphenylamino)pyrimidin-4-yl)methyl)(methyl)amino)methyl) benzonitrile]
- Activity L444P [1, 3]: C (Increase in comparison with non-treated of 1.2-1.7 fold is shown as C)
- Activity Wild Type (WT) [2]: B (Increase in comparison with non-treated of >1.7-2.0 fold is shown as B)

SMILES: COc1ccccc1Nc1nc(N)cc(CN(C)Cc2ccccc2)n1 [Example 67, 6-((Benzyl(methyl)amino)methyl)-N^2-(2-methoxyphenyl) pyrimidine-2,4-diamine]
- Activity L444P [1, 3]: A (Increase in comparison with non-treated of >2.0 fold is shown as A)
- Activity Wild Type (WT) [2]: B (Increase in comparison with non-treated of >1.7-2.0 fold is shown as B)
